System: male monkey (a cynomolgus monkey)
Experiment: Intraocular pressure lowering activity after ocular instillation
Format: in vivo
Conditions: Primates, in Macaca fascicularis, topical, maximum rate during 24 hours after ocular instillation of 30 μL, conscious monkey; for inhibition in vivo at 3 µg/mL: administration concentration 3 μg/mL; for inhibition in vivo at 10 µg/mL: administration concentration 10 μg/mL
Protocol: As can be easily understood by a person skilled in the art, in an in vivo test, since regarding all test compounds, carboxylic acid which is an active body has poor corneal permeability, pharmacological action of the active body was evaluated by ocular instillation administration of a compound which had been converted into an ester such as an ethyl ester or an isopropyl ester, or an alcohol.
A test compound-containing solution (30 μL) which had been adjusted to each of various concentrations was ocular instillation-administered to the left or right eye of a male monkey (a cynomolgus monkey) under consciousness. An intraocular pressure after administration was measured with time from administration initiation to after 24 hours. Upon measurement of an intraocular pressure, a cynomolgus monkey was fixed on a monkey chair, and the monkey was anesthetized by ocular instillation-administering an ocular surface anesthetic (Benoxil eye drops 0.4% Santen Pharmaceutical Co., Ltd.). After mounting of a blepharostat (Handaya Co., Ltd.), an intraocular pressure of both eyes was measured (7 to 8 examples per group) using a pneumatic applanation flat tonometer (Model 30 Classic, REICHERT). A difference between an intraocular pressure value before the administration of a test substance and an intraocular pressure value after the administration of the test substance was calculated as an intraocular pressure lowering rate in accordance with the following equation, and the sustainability of intraocular eye lowering action was evaluated using a maximum intraocular pressure lowering rate during measurement.
The administered concentrations were determined based on the EP2 agonist activities measured by the above-mentioned method.

Cc1cc(OC[C@@H]2[C@H]3CC[C@H](c4nc(CO)cs4)O[C@H]3C[C@H]2O)ccc1Cl [2(13), (2R,4aR,5S,6R,7aS)-5-[(4-chloro-3-methylphenoxy)methyl]-2-[4-(hydroxymethyl)-1,3-thiazol-2-yl]octahydrocyclopenta[b]pyran-6-ol]
inhibition in vivo at 3 µg/mL: 31%

OCc1csc([C@H]2CC[C@@H]3[C@@H](COc4ccc(Cl)c(C5CC5)c4)[C@H](O)C[C@@H]3O2)n1 [2(10), (2R,4aR,5S,6R,7aS)-5-[(4-chloro-3-cyclopropylphenoxy)methyl]-2-[4-(hydroxymethyl)-1,3-thiazol-2-yl]octahydrocyclopenta[b]pyran-6-ol]
inhibition in vivo at 10 µg/mL: 31%

CCc1ccc(OC[C@@H]2[C@H]3CC[C@H](c4nc(CO)cs4)O[C@H]3C[C@@H]2O)cc1C1CCC1 [10(17), (2R,4aR,5S,6S,7aS)-5-[(3-cyclobutyl-4-ethylphenoxy)methyl]-2-[4-(hydroxymethyl)-1,3-thiazol-2-yl]octahydrocyclopenta[b]pyran-6-ol]
inhibition in vivo at 100 µg/mL (administration concentration 100 μg/mL): 57%

CSc1cc(OC[C@@H]2[C@H]3CC[C@H](c4nc(CO)cs4)O[C@H]3C[C@@H]2O)ccc1C [10(12), (2R,4aR,5S,6S,7aS)-2-[4-(hydroxymethyl)-1,3-thiazol-2-yl]-5-{[4-methyl-3-(methylthio)phenoxy]methyl}octahydrocyclopenta[b]pyran-6-ol]
inhibition in vivo at 0.3 µg/mL (administration concentration 0.3 μg/mL): 33%

CCc1ccc(OC[C@@H]2[C@H]3CC[C@H](c4nc(CO)cs4)O[C@H]3C[C@@H]2O)cc1C1CC1 [10(15), (2R,4aR,5S,6S,7aS)-5-[(3-cyclopropyl-4-ethylphenoxy)methyl]-2-[4-(hydroxymethyl)-1,3-thiazol-2-yl]octahydrocyclopenta[b]pyran-6-ol]
inhibition in vivo at 3 µg/mL: 37%

Cc1ccc(OC[C@@H]2[C@H]3CC[C@H](c4nc(CO)cs4)O[C@H]3C[C@H]2O)cc1C [2(12), (2R,4aR,5S,6R,7aS)-5-[(3,4-dimethylphenoxy)methyl]-2-[4-(hydroxymethyl)-1,3-thiazol-2-yl]octahydrocyclopenta[b]pyran-6-ol]
inhibition in vivo at 10 µg/mL: 43%

OCc1csc([C@H]2CC[C@@H]3[C@@H](COc4ccc5c(c4)CCCCC5)[C@@H](O)C[C@@H]3O2)n1 [10(16), (2R,4aR,5S,6S,7aS)-2-[4-(hydroxymethyl)-1,3-thiazol-2-yl]-5-[(6,7,8,9-tetrahydro-5H-benzo[7]annulen-2-yloxy)methyl]octahydrocyclopenta[b]pyran-6-ol]
inhibition in vivo at 10 µg/mL: 45%

OCc1csc([C@H]2CC[C@@H]3[C@@H](COc4ccc5c(c4)CCC5)[C@@H](O)C[C@@H]3O2)n1 [10(1), (2R,4aR,5S,6S,7aS)-5-[(2,3-dihydro-1H-inden-5-yloxy)methyl]-2-[4-(hydroxymethyl)-1,3-thiazol-2-yl]octahydrocyclopenta[b]pyran-6-ol]
inhibition in vivo at 3 µg/mL: 29%
